{"source": "patent EP3928779A1", "about": "(Chugai Seiyaku Kabushiki Kaisha, priority 2014, dated 2016)"}
{"tested_on": "rat small-intestinal brush border membrane vesicles", "assay": "Inhibitory effect on 33PO4 uptake into rat small-intestinal brush border membrane vesicles (rapid filtration method)", "assay_type": "biochemical", "conditions": "33PO4 uptake into rat small-intestinal BBMVs; test compound 1 µM; reacted for 60 seconds", "procedure,_shortened": "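Uptake of ^33PO4 was measured by rapid filtration and liquid scintillation counting of filter-retained vesicles, after quenching with ice-cold 110 mM NaCl/1 mM KH2PO4/10 mM HEPES pH 7.5. Vesicles were brush border membranes from the upper small intestine of female Wistar rats aged 4–5 weeks.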", "units": {"Rate of uptake inhibition (%) (1 µM)": "%"}}
{"molecule": "CC(C)(C)[C@H]1C(O)=C(C(=O)Nc2ccc(Cl)cc2-c2ccc(C(F)(F)F)nc2)C(=O)N(Cc2cccc(F)c2F)N1CC(F)(F)F", "note": "[Example 247]", "Rate of uptake inhibition (%) (1 µM)": 51}
{"molecule": "CN1N(Cc2cccc(F)c2F)C(=O)C(C(=O)Nc2ccc(C(F)(F)F)cc2-c2ccc(C(F)(F)F)nc2)=C(O)C12CCC2", "note": "[Example 301]", "Rate of uptake inhibition (%) (1 µM)": 79}
{"molecule": "C[C@]12CCCN1N(Cc1cccc(F)c1F)C(=O)C(C(=O)Nc1ccc(C(F)(F)F)cc1-c1cnc(Cl)cn1)=C2O", "note": "[Example 74]", "Rate of uptake inhibition (%) (1 µM)": 82}
{"molecule": "CCC1(CC)C(O)=C(C(=O)Nc2ccc(C(F)(F)F)cc2-c2cc(C(F)(F)F)ncn2)C(=O)N(Cc2ccc(OCCN3CCOCC3)c(F)c2F)N1C", "note": "[Example 291]", "Rate of uptake inhibition (%) (1 µM)": 47}
{"molecule": "COCCN(C)CCOc1ccc(CN2C(=O)C(C(=O)Nc3ccc(C(F)(F)F)cc3-c3cc(C(F)(F)F)ncn3)=C(O)C3(CCC3)N2C)c(F)c1F", "note": "[Example 13, 6-[[2,3-Difluoro-4-[2-[2-methoxyethyl(methyl)amino]ethoxy]phenyl]methyl]-9-hydroxy-5-methyl-7-oxo-N-[4-(trifluoromethyl)-2-[6-(trifluoromethyl)pyrimidin-4-yl]phenyl]-5,6-diazaspiro[3.5]non-8-ene-8-carboxamide]", "Rate of uptake inhibition (%) (1 µM)": 58}
{"molecule": "CC(C)[C@@H]1C(O)=C(C(=O)Nc2ccc(C(F)(F)F)cc2-c2cc(C(F)(F)F)ncn2)C(=O)N(Cc2cccc(F)c2F)N1C", "note": "[Example 249]", "Rate of uptake inhibition (%) (1 µM)": 50}
{"molecule": "C[C@]12CCCN1N(Cc1ccccc1Cl)C(=O)C(C(=O)Nc1ccc(C(F)(F)F)cc1-c1cc(C(F)(F)F)ncn1)=C2O", "note": "[Example 180]", "Rate of uptake inhibition (%) (1 µM)": 75}
{"molecule": "CCOc1cccc(-c2cc(C(F)(F)F)ccc2NC(=O)C2=C(O)[C@@]3(C)CCCN3N(Cc3cccc(F)c3F)C2=O)c1OC", "note": "[Example 66]", "Rate of uptake inhibition (%) (1 µM)": 96}
{"molecule": "C[C@]12CCCN1N(Cc1cc(F)c(F)c(F)c1)C(=O)C(C(=O)Nc1cc(F)c(Br)c(F)c1)=C2O", "note": "[Example 197]", "Rate of uptake inhibition (%) (1 µM)": 82}
{"molecule": "CN1N(Cc2ccc(OCCN3C4CCC3COC4)c(F)c2F)C(=O)C(C(=O)Nc2ccc(C(F)(F)F)cc2-c2cc(C(F)(F)F)ncn2)=C(O)C12CCCC2", "note": "[Example 367]", "Rate of uptake inhibition (%) (1 µM)": 43}
{"molecule": "C[C@]12CCCN1N(Cc1ccccc1C#N)C(=O)C(C(=O)Nc1cc(F)c(Br)c(F)c1)=C2O", "note": "[Example 218]", "Rate of uptake inhibition (%) (1 µM)": 82}
{"molecule": "COCCN(CCOC)CCOc1ccc(CN2C(=O)C(C(=O)Nc3ccc(C(F)(F)F)cc3-c3cc(C(F)(F)F)ncn3)=C(O)C3(CCC3)N2C)c(F)c1F", "note": "[Example 348]", "Rate of uptake inhibition (%) (1 µM)": 31}
{"molecule": "COc1ncc(-c2cc(C(F)(F)F)ccc2NC(=O)C2=C(O)[C@@]3(C)CCCN3N(Cc3cccc(F)c3F)C2=O)c(OC)n1", "note": "[Example 72]", "Rate of uptake inhibition (%) (1 µM)": 92}
{"molecule": "CSc1ccc(-c2cc(C(F)(F)F)ccc2NC(=O)C2=C(O)C(C)(C)N(C)N(Cc3cccc(F)c3F)C2=O)cn1", "note": "[Example 310]", "Rate of uptake inhibition (%) (1 µM)": 63}
{"molecule": "Cc1ccc(CN2C(=O)C(C(=O)Nc3ccc(C(F)(F)F)cc3-c3cc(C(F)(F)F)ncn3)=C(O)[C@@]3(C)CCCN23)cc1", "note": "[Example 187]", "Rate of uptake inhibition (%) (1 µM)": 80}
{"molecule": "C[C@]12CCCN1N(Cc1ccc(OC[C@H]3CCCO3)c(F)c1F)C(=O)C(C(=O)Nc1ccc(C(F)(F)F)cc1-c1ccc(C(F)(F)F)nc1)=C2O", "note": "[Example 160]", "Rate of uptake inhibition (%) (1 µM)": 77}
{"molecule": "C[C@]12CCCN1N(Cc1ccccc1F)C(=O)C(C(=O)Nc1ccc(C(F)(F)F)cc1-c1cc(C(F)(F)F)ncn1)=C2O", "note": "[Example 207]", "Rate of uptake inhibition (%) (1 µM)": 73}
{"molecule": "CN1[C@@H](C(C)(C)C)C(O)=C(C(=O)Nc2ccc(C(F)(F)F)cc2-c2ccc(C(F)(F)F)nc2)C(=O)N1Cc1cccc(F)c1F", "note": "[Example 238]", "Rate of uptake inhibition (%) (1 µM)": 47}
{"molecule": "(4aR)-4a-Ethyl-1-[(3-fluorophenyl)methyl]-4-hydroxy-N-[5-methyl-2-(trifluoromethyl)furan-3-yl]-2-oxo-6,7-dihydro-5H-pyrrolo[1,2-b]pyridazine-3-carboxamide [Example 9]", "Rate of uptake inhibition (%) (1 µM)": 63}
{"molecule": "Cc1c(Cl)ncnc1-c1cc(C(F)(F)F)ccc1NC(=O)C1=C(O)[C@@]2(C)CCCN2N(Cc2cccc(F)c2F)C1=O", "note": "[Example 69]", "Rate of uptake inhibition (%) (1 µM)": 74}
{"molecule": "C[C@]12CCCN1N(Cc1cccc(F)c1F)C(=O)C(C(=O)Nc1ccc(C(F)(F)F)cc1-c1cc(C#N)ncn1)=C2O", "note": "[Example 100]", "Rate of uptake inhibition (%) (1 µM)": 69}
{"molecule": "C[C@]12CCCN1N(Cc1cccc(F)c1F)C(=O)C(C(=O)Nc1ccc(C(F)(F)F)cc1-c1cnc3ccccc3c1)=C2O", "note": "[Example 83]", "Rate of uptake inhibition (%) (1 µM)": 90}
{"molecule": "CN(CCO)CCOc1ccc(CN2C(=O)C(C(=O)Nc3ccc(C(F)(F)F)cc3-c3cc(C(F)(F)F)ncn3)=C(O)C3(CCCC3)N2C)c(F)c1F", "note": "[Example 373]", "Rate of uptake inhibition (%) (1 µM)": 27}
{"molecule": "CN1[C@@H](C(C)(C)C)C(O)=C(C(=O)Nc2cccc(C(F)(F)F)n2)C(=O)N1Cc1cccc(F)c1F", "note": "[Example 244]", "Rate of uptake inhibition (%) (1 µM)": 71}
{"molecule": "COc1cccc(CN2C(=O)C(C(=O)Nc3ccc(C(F)(F)F)cc3-c3ccc(C(F)(F)F)nc3)=C(O)[C@@]3(C)CCCN23)c1OC", "note": "[Example 175]", "Rate of uptake inhibition (%) (1 µM)": 85}
{"molecule": "CN(CCOCCOCCOCCOCCOc1ccc(CN2C(=O)C(C(=O)Nc3ccc(C(F)(F)F)cc3-c3cc(C(F)(F)F)ncn3)=C(O)C3(CCCC3)N2C)c(F)c1F)C[C@@H](O)[C@H](O)[C@@H](O)[C@@H](O)CO", "note": "[Example 421, 7-[[2,3-Difluoro-4-[2-[2-[2-[2-[2-[methyl-[(2R,3S,4S,5S)-2,3,4,5,6-pentahydroxyhexyl]amino]ethoxy]ethoxy]ethoxy]ethoxy]ethoxy]phenyl]methyl]-10-hydroxy-6-methyl-8-oxo-N-[4-(trifluoromethyl)-2-[6-(trifluoromethyl)pyrimidin-4-yl]phenyl]-6,7-diazaspiro[4.5]dec-9-ene-9-carboxamide]", "Rate of uptake inhibition (%) (1 µM)": 24}
{"molecule": "C[C@]12CCCN1N(Cc1c(F)cc(CCCCCCCOC[C@H](O)[C@@H](O)CO)cc1F)C(=O)C(C(=O)Nc1ccc(C(F)(F)F)cc1-c1ccc(C(F)(F)F)nc1)=C2O", "note": "[Example 125, (4aR)-1-[[2,6-Difluoro-4-[7-[(2S,3S)-2,3,4-trihydroxybutoxy]heptyl]phenyl]methyl]-4-hydroxy-4a-methyl-2-oxo-N-[4-(trifluoromethyl)-2-[6-(trifluoromethyl)pyridin-3-yl]phenyl]-6,7-dihydro-5H-pyrrolo[1,2-b]pyridazine-3-carboxamide]", "Rate of uptake inhibition (%) (1 µM)": 76}
{"molecule": "COCCN(C)CCOCCOc1ccc(CN2C(=O)C(C(=O)Nc3ccc(C(F)(F)F)cc3-c3cc(C(F)(F)F)ncn3)=C(O)C3(CCCC3)N2C)c(F)c1F", "note": "[Example 429, 7-[[2,3-Difluoro-4-[2-[2-[2-methoxyethyl(methyl)amino]ethoxy]ethoxy]phenyl]methyl]-10-hydroxy-6-methyl-8-oxo-N-[4-(trifluoromethyl)-2-[6-(trifluoromethyl)pyrimidin-4-yl]phenyl]-6,7-diazaspiro[4.5]dec-9-ene-9-carboxamide]", "Rate of uptake inhibition (%) (1 µM)": 41}
{"molecule": "CN(CCOCCC(=O)N(C)C[C@H](O)[C@@H](O)[C@H](O)[C@H](O)CO)CCOc1ccc(CN2C(=O)C(C(=O)Nc3ccc(C(F)(F)F)cc3-c3cc(C(F)(F)F)ncn3)=C(O)C3(CCCC3)N2C)c(F)c1F", "note": "[Example 425]", "Rate of uptake inhibition (%) (1 µM)": 5}
{"molecule": "CSC1CN(CCOc2ccc(CN3C(=O)C(C(=O)Nc4ccc(C(F)(F)F)cc4-c4cc(C(F)(F)F)ncn4)=C(O)C4(CCC4)N3C)c(F)c2F)C1", "note": "[Example 357]", "Rate of uptake inhibition (%) (1 µM)": 45}
{"molecule": "COCCCN(C)C(=O)c1cc(CN2C(=O)C(C(=O)Nc3ccc(C(F)(F)F)cc3-c3cc(C(F)(F)F)ncn3)=C(O)C3(CCCC3)N2C)c(F)c(F)c1OCCN(C)CCOC", "note": "[Example 438, 7-[[2,3-Difluoro-4-[2-[2-methoxyethyl(methyl)amino]ethoxy]-5-[3-methoxypropyl(methyl)carbamoyl]phenyl]methyl]-10-hydroxy-6-methyl-8-oxo-N-[4-(trifluoromethyl)-2-[6-(trifluoromethyl)pyrimidin-4-yl]phenyl]-6,7-diazaspiro[4.5]dec-9-ene-9-carboxamide]", "Rate of uptake inhibition (%) (1 µM)": 33}
{"molecule": "CC(=O)NCCN(C)CCOc1ccc(CN2C(=O)C(C(=O)Nc3ccc(C(F)(F)F)cc3-c3cc(C(F)(F)F)ncn3)=C(O)C3(CCC3)N2C)c(F)c1F", "note": "[Example 353]", "Rate of uptake inhibition (%) (1 µM)": 26}
{"molecule": "CN(CCOc1ccc(CN2C(=O)C(C(=O)Nc3ccc(C(F)(F)F)cc3-c3cc(C(F)(F)F)ncn3)=C(O)C3(CCC3)N2C)c(F)c1F)C1CCOC1", "note": "(centres unmarked) [Example 338, 6-[[2,3-Difluoro-4-[2-[methyl(oxolan-3-yl)amino]ethoxy]phenyl]methyl]-9-hydroxy-5-methyl-7-oxo-N-[4-(trifluoromethyl)-2-[6-(trifluoromethyl)pyrimidin-4-yl]phenyl]-5,6-diazaspiro[3.5]non-8-ene-8-carboxamide]", "Rate of uptake inhibition (%) (1 µM)": 66}
{"molecule": "C[C@]12CCCN1N(Cc1ccc(C#N)cc1)C(=O)C(C(=O)Nc1cc(F)c(Br)c(F)c1)=C2O", "note": "[Example 222]", "Rate of uptake inhibition (%) (1 µM)": 97}
{"molecule": "COC(=O)CN(C)c1ncc(-c2cc(C(F)(F)F)ccc2NC(=O)C2=C(O)[C@@]3(C)CCCN3N(Cc3cccc(F)c3F)C2=O)cc1C#N", "note": "[Example 112, Methyl 2-[[5-[2-[[(4aR)-1-[(2,3-difluorophenyl)methyl]-4-hydroxy-4a-methyl-2-oxo-6,7-dihydro-5H-pyrrolo[1,2-b]pyridazine-3-carbonyl]aminol-5-(trifluoromethyl)phenyl]-3-cyanopyridin-2-yl-methylamino] acetate]", "Rate of uptake inhibition (%) (1 µM)": 43}
